Assay results: article PMC12502564, “Evaluation of LLM-generated peptide as foundation template for discovery of effective encrypted AMPs against clinical superbugs” (Microbiology Spectrum, 2025)
No end group written: not given here.

What was measured:
CRAB 2210186 [1] = experiment: Thigh infection mouse model; assay type: in vivo, BALB/c mice; conditions: neutropenic mice, ~1 × 10^6 CFU in thigh, i.p. at 1, 3, 5, 7 h post-infection (PL-15 10 × MIC, 100 µL; polymyxin B 20,000–25,000 U kg^−1 day^−1), n = 8
From the text: The WHO has classified CRAB as a “Critical Priority” pathogen in its Priority Pathogens List, recognizing it as a predominant causative agent of hospital-acquired infections ([2]). This classification reflects CRAB’s global dissemination, high mortality rates, and extreme resistance profiles. Given this critical situation, a thigh infection model was employed to evaluate the in vivo therapeutic efficacy of PL-15 against CRAB. To establish the mouse thigh infection model, mice were pre-treated intraperitoneally with cyclophosphamide 4 days and 1 day prior to bacterial inoculation to induce neutropenia, administered at doses of 150 mg kg^−1 and 100 mg kg^−1, respectively ([51]). Each mouse was then injected with approximately 10^6 colony-forming unit (CFU) of CRAB in the thigh tissue, followed by four intraperitoneal injections of PL-15, polymyxin B, or phosphate-buffered saline (PBS) within 24 h of infection (Fig. 3a).
All animal experiments were performed according to the “Principles of Laboratory Animal Care” (NIH publication No. 86-23, revised 1985) and approved by the Animal Care and Use Committee of Shandong University (LL20240622, Jinan, China). Five-week-old male BALB/c mice were purchased from Beijing Vital River Laboratory Animal Technology Co., Ltd. (Beijing, China) and kept under a 12-hour light/12-hour dark cycle, humidity of 50%, and temperature of 22°C in standard specific pathogen-free individually vented cages.
To establish the mouse thigh infection model, mice were injected intraperitoneally with cyclophosphamide 4 d and 1 d before bacterial administration, at concentrations of 150 and 100 mg kg^−1, respectively, to induce neutropenia ([51]). CRAB 2210186 cells were suspended in sterile PBS, adjusted to a concentration of ~1 × 10^6 CFU per infection site and injected into the right thighs of eight mice per treatment group. PL-15 (10 × MIC, 100 µL), polymyxin B (20,000–25,000 U kg^−1 day^−1) or PBS were administered intraperitoneally at 1, 3, 5, and 7 h post-infection. Mice were euthanized 24 h after infection, and the thigh tissues were aseptically collected, weighed, homogenized, serially diluted in PBS, and plated onto solid MCA. The CFU of CRAB 2210186 per thigh was calculated by plating dilutions of the thigh homogenates (0.25 g of thigh tissue in 10 mL sterile PBS) on agar plates and counting colonies.

CRAB 2210186 [2] = conditions: 10% fetal bovine serum, room temperature, 1–6 h, then MIC assay, triplicate
Protocol: For serum sensitivity experiments, the peptide to be tested was incubated in 10% fetal bovine serum at room temperature for 1–6 h. After deactivation, the MICs of peptides against CRAB 2210186 and MRSA 2210187 were measured using the MIC assay. All experiments were performed in triplicate to ensure reliability.

WLKRILKWIGNKLKW [PL-15] was tested, and the “reduction of bacterial load compared to the PBS control group” value (CRAB 2210186 [1]; 24 h) was “two orders of magnitude”, the “bacteria eradicated in the thigh tissue within 24 h” value (CRAB 2210186 [1]) was “over 97%” and the “fold change in MIC after incubation in serum” value (CRAB 2210186 [2]) was “maximum twofold increase”.
